In patent US5043326A, “Inclusion complex of 7-isopropoxy-isoflavon formed with cyclodextrin, the preparation thereof and pharmaceutical compositions containing these compounds as active ingredients” (priority 1985, dated 1991):
In brackets after ≈: the same amount, converted by molar mass. One block for each compound: values may come before it.

Assays:
[1] = Urinary excretion in rats, 24 h (HPLC); assay type: in vivo, CFY male rats; settings: rat urine
Procedure: (§1) To the resorption tests CFY male rats weighing 170-200 g were used. After a 16-hour fasting period, Ipriflavon in a dose of 25 mg/kg (group A), Ipriflavon-β-cyclodextrin inclusion complex prepared according to Example 1 (group B) and Ipriflavon-β-cyclodextrin mixture (group C)--both containing the β-cyclodextrin in equimolar ratio to the active ingredient--were administered, thereafter rat-food and water were given "ad libitum" to the animals.
(§2) The materials to be tested were mixed for 5 minutes in 2 ml of 1% methylcellulose solution and administered by the aid of a stomach tube. The plasma samples were collected 10, 30 minutes and 1, 2 and 4 hours after the treatment using mortal haemorrhage after transecting the Vena femoralis of the animals anasthesied with ether. The blood samples were charged into heparinized tubes, centrifuged, nutsch-filtered and stored deep-freezed, in vial until further use.
In order to collect urinary samples, after treatment the animals were placed into individual metabolism vessel and urine and faeces were separately collected for 24 hours. The urinary samples were stored deep-freezed until further use. The concentration of the unchanged Ipriflavon and its main metabolite (7-hydroxy-isoflavon) in the urinary and the plasma samples was followed by HPLC. […]

[2] = cited from earlier work
[3] = Solubility of Ipriflavon in aqueous cyclodextrin solutions (4 days agitation, 25° C., photometric); assay type: physicochemical
Procedure: One of the evidence of the formation of inclusion complex between Ipriflavon and cyclodextrin is that the cyclodextrin increases the solubility of Ipriflavon in aqueous solutions. In order to determine this property, 10 mg of Ipriflavon, cyclodextrin in different amounts and 5 ml of distilled water were charged into 10 ml test tubes. After closing, the tubes were agitated for 4 days at 25° C. at 325 rpm, thereafter the samples were filtered on a G4 glass-filter and the filtrates were photometrically analysed in 50% aqueous ethanol solution.

physchem = assay type: physicochemical; settings: for Concentration of dissolved Ipriflavon: 37° C.
Procedure: To carry out the dissolution tests 250 ml of distilled water were charged into a 500 ml flask and heated to 37° C. Thereafter the product in an amount corresponding to 50 mg of active ingredient was added then the suspension thus obtained was stirred at 1000 rpm using a magnetic stirrer. At fixed intervals 2-6 ml of samples were taken and filtered on glass-filter and after diluting, the filtrates were measured photometrically in an 1:1 mixture of water:ethanol.

[4] = cited from earlier work; remark: listed apart in the source
[5] = parameters: species or system CFY male rats; settings: rat, in vivo, po, 25 mg/kg, 1440 min
[6] = parameters: species or system CFY male rats; settings: rat, in vivo, po
Procedure: as §1
as §2, with “The blood samples were charged into heparinized tubes, centrifuged, nutsch-filtered and stored deep-freezed, in vial until further use.” left out
To analyse the plasma samples, to 1 ml of plasma 1 ml acetate-buffer (pH=5) and β-glucuronidase (arylsulfonase) enzyme (100 FU) diluted to 10-fold with 10 μl of distilled water were added and incubated at 37° C. for 24 hours. […] The organic phase was centrifuged,evaporated, the residue was dissolved in 100 μl of eluent and 50 μl of this solution were injected and measured. […]
In Table IV the concentration values of unchanged Ipriflavon and in Table V the concentration values of the main metabolite determined in the blood of animals are shown. […]

[7] = Resorption test in rats: plasma level of unchanged Ipriflavon (HPLC); assay type: in vivo, CFY male rats; settings: rat
Procedure: as §1, §2
In order to collect urinary samples, after treatment the animals were placed into individual metabolism vessel and urine and faeces were separately collected for 24 hours. The urinary samples were stored deep-freezed until further use. The concentration of the unchanged Ipriflavon and its main metabolite (7-hydroxy-isoflavon) in the urinary and the plasma samples was followed by HPLC.
To carry out the HPLC, liquid chromatography of typ RP-18 and LiChrosorb reverse phase column (grain size in case of plasma sample: 10 μm and in case of urinary samples: 5 μm) were used. Flow velocity of eluent: 1.5 ml/min, wave length of UV detector: 254 nm, paper-velocity: 0.2 cm/min.
In case of plasma samples a mixture of 0.05M acetate buffer (pH=3):acetonitrile=60:40 and in case of urinary samples a mixture of acetate buffer:acetonitril=55:45 were used as eluent. The internal standard was ethanolic solution of 2-methyl-7-methoxy-4'-nitro-isoflavon (100 μg/ml) and to the calibration, solutions comprising 100 μg/ml and 10 μg/ml of 7-hydroxy-isoflavon in methanol were used.
To analyse the plasma samples, to 1 ml of plasma 1 ml acetate-buffer (pH=5) and β-glucuronidase (arylsulfonase) enzyme (100 FU) diluted to 10-fold with 10 μl of distilled water were added and incubated at 37° C. for 24 hours. After incubation, 50 μl of 2N NaOH were added and the mixture was extracted with benzene and centrifuged. The organic phase was separated, the aqueous phase was made acidic with […] of 1N HCl, and after adding 50 μl of internal standard solution it was repeatedly extracted with 8 ml benzene. The organic phase was centrifuged,evaporated, the residue was dissolved in 100 μl of eluent and 50 μl of this solution were injected and measured.
Equation of the calibration curve: y=8.2x-0.08; correlation coefficient: 0.9999.
In Table IV the concentration values of unchanged Ipriflavon and in Table V the concentration values of the main metabolite determined in the blood of animals are shown. To group A Ipriflavon per se, to group B the inclusion complex according to the invention and to group C the mixture of Ipriflavon and β-cyclodextrin were administered.

[8] = as above; parameters: species or system CFY male rats; settings: rat, in vivo, po, 25 mg/kg, 1440 min
[9] = cited from earlier work; remark: listed apart in the source
[10] = in vivo, po, 25 mg/kg, Plasma-level of unchanged Ipriflavon

quantity of main metabolite of the total quantity of the metabolite [1]: 50-55%
Compound: O=c1c(-c2ccccc2)coc2cc(O)ccc12 [7-hydroxy-isoflavon]

solubility at 96 h ([3]; 12% aqueous alpha-cyclodextrin, solubility of Ipriflavon in α-cyclodextrin solution): 20 to 22 µg/mL (≈ 71.3 to 78.5 µM)
increase of solubility in DIMEB ([3]; 15% DIMEB): 1770 -fold
increase of solubility in TRIMEB ([3]; 15% TRIMEB): 300 -fold
solubility at 96 h ([3]; 15% aqueous dimeb, solubility in DIMEB solution): 1700 to 2000 µg/mL (≈ 6060 to 7130 µM)
solubility at 96 h ([3]; 15% aqueous trimeb, solubility in TRIMEB solution): 440 µg/mL (≈ 1570 µM)
solubility at 96 h ([3]; aqueous α-cd 11 mg/ml, Solubility of Ipriflavon): 4.12 µg/mL (≈ 14.7 µM)
solubility at 96 h ([3]; aqueous α-cd 13 mg/ml, Solubility of Ipriflavon): 4.68 µg/mL (≈ 16.7 µM)
solubility at 96 h ([3]; aqueous α-cd 15 mg/ml, Solubility of Ipriflavon): 5.08 µg/mL (≈ 18.1 µM)
solubility at 96 h ([3]; aqueous α-cd 20 mg/ml, Solubility of Ipriflavon): 6.1 µg/mL (≈ 21.8 µM)
solubility at 96 h ([3]; aqueous α-cd 30 mg/ml, Solubility of Ipriflavon): 8.19 µg/mL (≈ 29.2 µM)
solubility at 96 h ([3]; aqueous α-cd 40 mg/ml, Solubility of Ipriflavon): 9.63 µg/mL (≈ 34.4 µM)
solubility at 96 h ([3]; aqueous α-cd 70 mg/ml, Solubility of Ipriflavon): 14.8 µg/mL (≈ 52.7 µM)
solubility at 96 h ([3]; aqueous α-cd 90 mg/ml, Solubility of Ipriflavon): 18.2 µg/mL (≈ 65.1 µM)
solubility at 96 h ([3]; aqueous α-cd 100 mg/ml, Solubility of Ipriflavon): 21.6 µg/mL (≈ 77.2 µM)
solubility at 96 h ([3]; aqueous α-cd 110 mg/ml, Solubility of Ipriflavon): 19 µg/mL (≈ 67.9 µM)
solubility at 96 h ([3]; aqueous α-cd 120 mg/ml, Solubility of Ipriflavon): 23.6 µg/mL (≈ 84.4 µM)
solubility at 96 h ([3]; aqueous β-cd 1 mg/ml, Solubility of Ipriflavon): 2.52 µg/mL (≈ 8.99 µM)
solubility at 96 h ([3]; aqueous β-cd 3 mg/ml, Solubility of Ipriflavon): 7.03 µg/mL (≈ 25.1 µM)
solubility at 96 h ([3]; aqueous β-cd 5 mg/ml, Solubility of Ipriflavon): 11.4 µg/mL (≈ 40.8 µM)
solubility at 96 h ([3]; aqueous β-cd 7 mg/ml, Solubility of Ipriflavon): 15.9 µg/mL (≈ 56.8 µM)
solubility at 96 h ([3]; aqueous β-cd 9 mg/ml, Solubility of Ipriflavon): 19.5 µg/mL (≈ 69.6 µM)
solubility at 96 h ([3]; aqueous β-cd 11 mg/ml, Solubility of Ipriflavon): 15.2 µg/mL (≈ 54.3 µM)
solubility at 96 h ([3]; aqueous β-cd 13 mg/ml, Solubility of Ipriflavon): 15.5 µg/mL (≈ 55.2 µM)
solubility at 96 h ([3]; aqueous β-cd 15 mg/ml, Solubility of Ipriflavon): 15.8 µg/mL (≈ 56.2 µM)
solubility at 96 h ([3]; aqueous β-cd 20 mg/ml, Solubility of Ipriflavon): 13.5 µg/mL (≈ 48 µM)
solubility at 96 h ([3]; aqueous β-cd 30 mg/ml, Solubility of Ipriflavon): 7.59 µg/mL (≈ 27.1 µM)
solubility at 96 h ([3]; aqueous β-cd 40 mg/ml, Solubility of Ipriflavon): 6.2 µg/mL (≈ 22.1 µM)
solubility at 96 h ([3]; aqueous β-cd 70 mg/ml, Solubility of Ipriflavon): 6.08 µg/mL (≈ 21.7 µM)
solubility at 96 h ([3]; aqueous β-cd 90 mg/ml, Solubility of Ipriflavon): 6.93 µg/mL (≈ 24.7 µM)
solubility at 96 h ([3]; aqueous β-cd 100 mg/ml, Solubility of Ipriflavon): 6.64 µg/mL (≈ 23.7 µM)
solubility at 96 h ([3]; aqueous β-cd 110 mg/ml, Solubility of Ipriflavon): 5.98 µg/mL (≈ 21.3 µM)
solubility at 96 h ([3]; aqueous β-cd 120 mg/ml, Solubility of Ipriflavon): 5.66 µg/mL (≈ 20.2 µM)
solubility at 96 h ([3]; aqueous γ-cd 11 mg/ml, Solubility of Ipriflavon): 2.02 µg/mL (≈ 7.21 µM)
solubility at 96 h ([3]; aqueous γ-cd 13 mg/ml, Solubility of Ipriflavon): 2.05 µg/mL (≈ 7.31 µM)
solubility at 96 h ([3]; aqueous γ-cd 15 mg/ml, Solubility of Ipriflavon): 2.16 µg/mL (≈ 7.71 µM)
solubility at 96 h ([3]; aqueous γ-cd 20 mg/ml, Solubility of Ipriflavon): 2.38 µg/mL (≈ 8.49 µM)
solubility at 96 h ([3]; aqueous γ-cd 30 mg/ml, Solubility of Ipriflavon): 2.74 µg/mL (≈ 9.77 µM)
solubility at 96 h ([3]; aqueous γ-cd solution, Solubility of Ipriflavon): 3.26 µg/mL (≈ 11.6 µM)
solubility at 96 h ([3]; beta-cyclodextrin solution, constant solubility value (solubility limit of the solid inclusion complex in excess Ipriflavon)): 6 µg/mL (≈ 21.4 µM)
solubility at 96 h ([3]; beta-cyclodextrin solution, solubility of Ipriflavon in β-cyclodextrin solution): 16 to 20 µg/mL (≈ 57.1 to 71.3 µM)
solubility at 96 h ([3]; distilled water, water, solubility of Ipriflavon in distilled water): 1 to 2 µg/mL (≈ 3.57 to 7.13 µM)
increase of solubility in β-cyclodextrin solution vs distilled water ([3]; β-cyclodextrin, depending on concentration): ≤ 15 -fold
increase of solubility in γ-cyclodextrin solution ([3]; γ-cyclodextrin): 3 -fold
Concentration of dissolved Ipriflavon (physchem; 1 min, distilled water): 435 ng/mL
Concentration of dissolved Ipriflavon (physchem; 2 min, distilled water): 327 ng/mL
Concentration of dissolved Ipriflavon (physchem; 3 min, distilled water): 401 ng/mL
Concentration of dissolved Ipriflavon (physchem; 5 min, distilled water): 507 ng/mL
Concentration of dissolved Ipriflavon (physchem; 10 min, distilled water): 882 ng/mL
Concentration of dissolved Ipriflavon (physchem; 15 min, distilled water): 1123 ng/mL
Concentration of dissolved Ipriflavon (physchem; 20 min, distilled water): 1197 ng/mL
Concentration of dissolved Ipriflavon (physchem; 30 min, distilled water): 1423 ng/mL
Concentration of dissolved Ipriflavon (physchem; 40 min, distilled water): 1508 ng/mL
Concentration of dissolved Ipriflavon (physchem; 60 min, distilled water): 1621 ng/mL
Concentration of dissolved Ipriflavon (physchem; 90 min, distilled water): 1525 ng/mL
Concentration of dissolved Ipriflavon (physchem; 120 min, distilled water): 1482 ng/mL
solubility (physchem; distilled water, water): ~1.5 µg/mL (≈ 5.35 µM)
time to reach the saturation value (physchem; free active ingredient): 40 to 50 min
Plasma-level of main metabolite (7-hydoxy-isoflavon) [5]: 0 µg/mL
plasma level of main metabolite [6]: 200 to 1000 ng/mL
Plasma-level of unchanged Ipriflavon ([7]; in vivo, po, 25 mg/kg, 10.2 min): 0 µg/mL
Plasma-level of unchanged Ipriflavon ([7]; in vivo, po, 25 mg/kg, 30 min): 0 µg/mL
Plasma-level of unchanged Ipriflavon ([7]; in vivo, po, 25 mg/kg, 60 min): 0 µg/mL
Plasma-level of unchanged Ipriflavon ([7]; in vivo, po, 25 mg/kg, 120 min): 0 µg/mL
Plasma-level of unchanged Ipriflavon ([7]; in vivo, po, 25 mg/kg, 2 h): 0.095 µg/mL
Plasma-level of unchanged Ipriflavon ([7]; in vivo, po, 25 mg/kg, 240 min): 0 µg/mL
concentration at 2 h [7, 10]: 78 ng/mL
concentration at 4 h [7, 10]: 41 ng/mL
Plasma-level of unchanged Ipriflavon [8]: 0 µg/mL
Compound: CC(C)Oc1ccc2c(=O)c(-c3ccccc3)coc2c1 [Ipriflavon, 7-isopropoxy-isoflavon]
solubility in water [2]: 1 to 2 µg/mL
solubility at 96 h ([3]; aqueous α-cd 50 mg/ml, Solubility of Ipriflavon): 10.6 µg/mL (≈ 37.8 µM)
solubility at 96 h ([3]; aqueous β-cd 50 mg/ml, Solubility of Ipriflavon): 5.44 µg/mL (≈ 19.4 µM)
resorption of the main metabolite ([4]; dog, in vivo, po): 152 ng·h/mL
Ipriflavon in the blood ([4]; dogs, oral): cannot be detected in the blood
detection of unchanged Ipriflavon in plasma ([7]; p.o.): can be detected only in few periods (at 2 and 4 hours)
HPLC analysis of the blood ([9]; beagle dogs): metabolites thereof (7-hydroxy-isoflavon as main metabolite) appear in the blood
radioactive material administered discharged with the urine ([9]; dog, in vivo): 12%
